Experimental data as given in US9828369B2, “Isoquinoline derivatives useful as inhibitors of diacylglyceride O-acyltransferase 2” (Merck Sharp & Dohme Corp., priority 2014, dated 2017).

Biological target: hDGAT2 (Homo sapiens (Human), UniProt Q96PD7)
Test: DGAT2 enzymatic activity assay (triolein formation, LC/MS/MS)
Settings: read-out: IC50 values for inhibition of DGAT2; membrane prep of Sf-9 cells expressing hDGAT2; 25 μM diolein, 10 μM oleoyl-CoA; room temperature; triolein by LC/MS/MS

Chain of hDGAT2 (Q96PD7 whole entry): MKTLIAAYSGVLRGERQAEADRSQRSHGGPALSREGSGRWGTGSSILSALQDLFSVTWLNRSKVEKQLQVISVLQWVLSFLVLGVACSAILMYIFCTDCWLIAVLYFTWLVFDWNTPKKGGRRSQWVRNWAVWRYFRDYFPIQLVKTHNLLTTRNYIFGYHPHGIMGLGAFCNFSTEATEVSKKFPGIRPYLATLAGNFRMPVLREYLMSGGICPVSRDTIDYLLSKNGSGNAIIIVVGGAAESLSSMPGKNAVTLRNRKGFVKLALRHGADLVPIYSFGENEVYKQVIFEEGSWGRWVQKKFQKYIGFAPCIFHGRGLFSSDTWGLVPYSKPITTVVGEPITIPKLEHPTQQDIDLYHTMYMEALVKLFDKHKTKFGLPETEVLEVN

SMILES	IC50 [nM]
COc1cccc(-c2ccc(CNC(=O)c3csc(-c4ccc(C(F)(F)F)cc4)n3)c3cnccc23)c1 [Example 78, N-((5-(3-methoxyphenyl)isoquinolin-8-yl)methyl)-2-(4-(trifluoromethyl)phenyl)thiazole-4-carboxamide]	1250
COc1cccc(-c2ccc(CNC(=O)c3cnn(-c4ccccc4)c3)c3cnccc23)c1 [Example 79, N-((5-(3-methoxyphenyl)isoquinolin-8-yl)methyl)-1-phenyl-1H-pyrazole-4-carboxamide]	8490
COc1cccc(-c2ccc(CNC(=O)c3cc(-c4ccccc4)no3)c3cnccc23)c1 [Example 80, N-((5-(3-methoxyphenyl)isoquinolin-8-yl)methyl)-3-phenylisoxazole-5-carboxamide]	2410
COc1cccc(-c2ccc(CNC(=O)Cc3nnc(-c4ccccc4)[nH]3)c3cnccc23)c1 [Example 81, N-((5-(3-methoxyphenyl)isoquinolin-8-yl)methyl)-2-(5-phenyl-4H-1,2,4-triazol-3-yl)acetamide]	483
COc1cccc(-c2ccc(CNC(=O)c3ccc(-c4ccccc4O)cc3)c3cnccc23)c1 [Example 82, 2′-hydroxy-N-((5-(3-methoxyphenyl)isoquinolin-8-yl)methyl)-[1,1′-biphenyl]-4-carboxamide]	602
COc1cccc(-c2ccc(CNC(=O)c3ccc(-c4ccccc4)o3)c3cnccc23)c1 [Example 83, N-((5-(3-methoxyphenyl)isoquinolin-8-yl)methyl)-5-phenylfuran-2-carboxamide]	1450
COc1cccc(-c2ccc(CNC(=O)c3ccc(N4CCCCC4)cc3)c3cnccc23)c1 [Example 84, N-((5-(3-methoxyphenyl)isoquinolin-8-yl)methyl)-4-(piperidin-1-yl)benzamide]	988
COc1cccc(-c2ccc(CNC(=O)c3cc(-c4ccccc4)nn3-c3ccccc3)c3cnccc23)c1 [Example 85, N-((5-(3-methoxyphenyl)isoquinolin-8-yl)methyl)-1,3-diphenyl-1H-pyrazole-5-carboxamide]	3580
COc1cccc(-c2ccc(CNC(=O)c3ccc(-c4ccc(F)cc4)cc3)c3cnccc23)c1 [Example 86, 4′-fluoro-N-((5-(3-methoxyphenyl)isoquinolin-8-yl)methyl)-[1,1′-biphenyl]-4-carboxamide]	1400
COc1cccc(-c2ccc(CNC(=O)c3cccc(-c4cccc(F)c4)c3)c3cnccc23)c1 [Example 87, 3′-fluoro-N-((5-(3-methoxyphenyl)isoquinolin-8-yl)methyl)-[1,1′-biphenyl]-3-carboxamide]	1200
COc1cccc(-c2ccc(CNC(=O)c3ccc(-c4cccc(F)c4)cc3)c3cnccc23)c1 [Example 88, 3′-fluoro-N-((5-(3-methoxyphenyl)isoquinolin-8-yl)methyl)-[1,1′-biphenyl]-4-carboxamide]	1560
COc1cccc(-c2ccc(CNC(=O)Cc3nc(-c4ccccc4)cs3)c3cnccc23)c1 [Example 89, N-((5-(3-methoxyphenyl)isoquinolin-8-yl)methyl)-2-(4-phenylthiazol-2-yl)acetamide]	2230
COc1cccc(-c2ccc(CNC(=O)c3ccccc3-n3cnnn3)c3cnccc23)c1 [Example 90, N-((5-(3-methoxyphenyl)isoquinolin-8-yl)methyl)-2-(1H-tetrazol-1-yl)benzamide]	902
COc1cccc(-c2ccc(CNC(=O)c3cccc(-n4cnnn4)c3)c3cnccc23)c1 [Example 91, N-((5-(3-methoxyphenyl)isoquinolin-8-yl)methyl)-3-(1H-tetrazol-1-yl)benzamide]	889
COc1cccc(-c2ccc(CNC(=O)c3cccc4cnccc34)c3cnccc23)c1 [Example 92, N-((5-(3-methoxyphenyl)isoquinolin-8-yl)methyl)isoquinoline-5-carboxamide]	1760
COc1cccc(-c2ccc(CNC(=O)CN3CCN(c4ccccc4)CC3)c3cnccc23)c1 [Example 93, N-((5-(3-methoxyphenyl)isoquinolin-8-yl)methyl)-2-(4-phenylpiperazin-1-yl)acetamide]	6670
COc1cccc(-c2ccc(CNC(=O)CCc3cnn(C)c3)c3cnccc23)c1 [Example 94, N-((5-(3-methoxyphenyl)isoquinolin-8-yl)methyl)-3-(1-methyl-1H-pyrazol-4-yl)propanamide]	305
COc1cccc(-c2ccc(CNC(=O)CC3(c4ccccc4)CCN(C(=O)OC(C)(C)C)C3)c3cnccc23)c1 (centres unmarked) [Example 95, tert-butyl 3-(2-(((5-(3-methoxyphenyl)isoquinolin-8-yl)methyl)amino)-2-oxoethyl)-3-phenylpyrrolidine-1-carboxylate]	1310
COc1cccc(-c2ccc(CNC(=O)C3CCC(c4ccccc4)=N3)c3cnccc23)c1 (centres unmarked) [Example 96, N-((5-(3-methoxyphenyl)isoquinolin-8-yl)methyl)-5-phenyl-3,4-dihydro-2H-pyrrole-2-carboxamide]	8000
COc1cccc(-c2ccc(CNC(=O)C3CC3c3ccc(Cl)cc3)c3cnccc23)c1 (centres unmarked) [Example 97, 2-(4-chlorophenyl)-N-((5-(3 methoxyphenyl)isoquinolin-8-yl)methyl)cyclopropanecarboxamide]	597
COc1cccc(-c2ccc(CNC(=O)C3CC34CCCC4)c3cnccc23)c1 (centres unmarked) [Example 98, N-((5-(3-methoxyphenyl)isoquinolin-8-yl)methyl)spiro[2.4]heptane-1-carboxamide]	7400
COc1cccc(-c2ccc(CNC(=O)C3CC34CCCCC4)c3cnccc23)c1 (centres unmarked) [Example 100, N-((5-(3-methoxyphenyl)isoquinolin-8-yl)methyl)spiro[2.5]octane-1-carboxamide]	243

Next, values leading:

IC50 [nM]	SMILES
915	COc1cccc(-c2ccc(CNC(=O)C3CC3c3ccccc3Br)c3cnccc23)c1 (centres unmarked) [Example 101, 2-(2-bromophenyl)-N-((5-(3-methoxyphenyl)isoquinolin-8-yl)methyl)cyclopropanecarboxamide]
178	COc1cccc(-c2ccc(CNC(=O)C3CC3c3ccc(F)cc3)c3cnccc23)c1 (centres unmarked) [Example 102, 2-(4-fluorophenyl)-N-((5-(3-methoxyphenyl)isoquinolin-8-yl)methyl)cyclopropanecarboxamide]
1180	COc1cccc(-c2ccc(CNC(=O)C3(S(=O)(=O)c4ccc(Cl)cc4)CC3)c3cnccc23)c1 [Example 103, 1-((4-chlorophenyl)sulfonyl)-N-((5-(3-methoxyphenyl)isoquinolin-8-yl)methyl)cyclopropanecarboxamide]
483	COc1cccc(-c2ccc(CNC(=O)C3CC3c3cccnc3)c3cnccc23)c1 (centres unmarked) [Example 104, N-((5-(3-methoxyphenyl)isoquinolin-8-yl)methyl)-2-(pyridin-3-yl)cyclopropanecarboxamide]
7440	COc1cccc(-c2ccc(CNC(=O)C3CC3c3ccccn3)c3cnccc23)c1 (centres unmarked) [Example 105, N-((5-(3-methoxyphenyl)isoquinolin-8-yl)methyl)-2-(pyridin-2-yl)cyclopropanecarboxamide]
537	COc1ccc(C2CC2C(=O)NCc2ccc(-c3cccc(OC)c3)c3ccncc23)cc1 (centres unmarked) [Example 106, 2-(4-methoxyphenyl)-N-((5-(3-methoxyphenyl)isoquinolin-8-yl)methyl)cyclopropanecarboxamide]
1180	COc1cccc(-c2ccc(CNC(=O)C3CC3c3cccc(OC)c3)c3cnccc23)c1 (centres unmarked) [Example 107, 2-(3-methoxyphenyl)-N-((5-(3-methoxyphenyl)isoquinolin-8-yl)methyl)cyclopropanecarboxamide]
696	COc1cccc(-c2ccc(CNC(=O)C3CC3(F)c3ccccc3)c3cnccc23)c1 (centres unmarked) [Example 109, 2-fluoro-N-((5-(3-methoxyphenyl)isoquinolin-8-yl)methyl)-2-phenylcyclopropanecarboxamide]
544	COc1cccc(-c2ccc(CNC(=O)c3n[nH]c(=O)c4ccccc34)c3cnccc23)c1 [Example 110, N-((5-(3-methoxyphenyl)isoquinolin-8-yl)methyl)-4-oxo-3,4-dihydrophthalazine-1-carboxamide]
1230	COc1cccc(-c2ccc(CNC(=O)C(C)(C)Oc3ccc(C(F)(F)F)cc3)c3cnccc23)c1 [Example 111, N-((5-(3-methoxyphenyl)isoquinolin-8-yl)methyl)-2-methyl-2-(4-(trifluoromethyl)phenoxy)propanamide]
1160	COc1cccc(-c2ccc(CNC(=O)C(C)(C)Oc3ccc(C(F)(F)F)cn3)c3cnccc23)c1 [Example 112, N-((5-(3-methoxyphenyl)isoquinolin-8-yl)methyl)-2-methyl-2-((5-(trifluoromethyl)pyridin-2-yl)oxy)propanamide]
5890	COc1cccc(-c2ccc(CNC(=O)c3cn(Cc4ccccc4)nn3)c3cnccc23)c1 [Example 113, 1-benzyl-N-((5-(3-methoxyphenyl)isoquinolin-8-yl)methyl)-1H-1,2,3-triazole-4-carboxamide]
6110	COc1cccc(-c2ccc(CNC(=O)C(C)(C)Oc3cc(C(F)(F)F)ccn3)c3cnccc23)c1 [Example 114, N-((5-(3-methoxyphenyl)isoquinolin-8-yl)methyl)-2-methyl-2-((4-(trifluoromethyl)pyridin-2-yl)oxy)propanamide]
3390	COc1cccc(-c2ccc(CNC(=O)c3cnn(Cc4ccccc4)c3)c3cnccc23)c1 [Example 115, 1-benzyl-N-((5-(3-methoxyphenyl)isoquinolin-8-yl)methyl)-1H-pyrazole-4-carboxamide]
8130	COc1cccc(-c2ccc(CNC(=O)C(F)(F)c3ccc(Br)cn3)c3cnccc23)c1 [Example 116, 2-(5-bromopyridin-2-yl)-2,2-difluoro-N-((5-(3-methoxyphenyl)isoquinolin-8-yl)methyl)acetamide]
942	COc1cccc(-c2ccc(CNC(=O)c3cc(C)n(Cc4ccccc4)n3)c3cnccc23)c1 [Example 117, 1-benzyl-N-((5-(3-methoxyphenyl)isoquinolin-8-yl)methyl)-5-methyl-1H-pyrazole-3-carboxamide]
